Measurements from patent US11583570B2, “Use of autoinducer-related pathway in inducing apoptosis and anti-infective therapy” (TSINGHUA UNIVERSITY, priority 2017, dated 2023).

Experiments:
TNFR1 (1-293) mutant = target: T1, TNFR1 (1-293) mutant (Homo sapiens, UniProt P19438); assay: Single molecule photo-bleaching step counting (MSFQ), TNFR1 in HELA cells; type: cell-based
T1 construct: human TNFR1 (1-293) mutant was amplified from human TNFR1 with specific primers and cloned into peGFP-N1 vector; expressed in transfected cells; host or cells: HeLa cells
T1 sequence (P19438 30-293): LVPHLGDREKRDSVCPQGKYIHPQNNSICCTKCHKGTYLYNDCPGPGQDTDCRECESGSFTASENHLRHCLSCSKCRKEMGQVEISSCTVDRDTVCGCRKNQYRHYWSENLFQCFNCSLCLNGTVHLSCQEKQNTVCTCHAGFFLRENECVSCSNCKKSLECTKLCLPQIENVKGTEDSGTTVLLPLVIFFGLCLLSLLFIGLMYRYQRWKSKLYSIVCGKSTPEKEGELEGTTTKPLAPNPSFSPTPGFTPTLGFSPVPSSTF
Source text: Then the cells were stimulated with HSLs, TNF α, or left untreated, and washed twice with PBS and fixed with 4% paraformaldehyde before imaging. GFP was excited at 488 nm with a laser power of 5 mW measured after the laser passing through the objective. […] The EM gain of the EMCCD camera was set at 300. Movies of 400 frames were acquired for each sample at a full-frame rate of 10 Hz. For imaging analysis, the background fluorescence was firstly subtracted from the movie acquired from the fixed cells using the rolling ball method in Image J software, and regions of interest on movies were selected manually according to the outline of cells. To analyze the bleaching steps, the fluorescence time courses of each fluorescent spots were first constructed by Image J plugin and bleaching steps were then counted manually.

THP-1 cell line = assay: Annexin V/PI apoptosis detection, THP-1; type: cell-based, human; conditions: THP-1, 3OC plus Emricasan, 1 hr, AnnexinV and PI
Method: (§1) Cell apoptosis was detected with Annexin V/PI apoptosis detection Kit. Briefly, cells were stimulated with HSLs or left untreated. 6 hrs later, cells were collected and stained with Annexin VFITC and PI for 15 min at RT, then the apoptotic effect was measured by flow cytometry. OT-I or OT-II splenocytes were pulsed with specific peptides or PMA and ionomycin mixture with or without HSLs or TNF α plus cycloheximide. 24 hrs later, cells and supernatants were collected separately. For OT-I activation, cells were stained with CD69 and CD8. For OT-II activation, cells were stained with CD69 and CD4. Cell activation was measured by flow cytometry. All supernatants were detected for IL-2 secretion by ELISA.
(§2) In order to verify TNFR1-FADD-caspase8-caspase3 pathway inhibitor can block immunocyte apoptosis caused by 3OC12-HSL clinically. The inventors use a clinical version of caspase inhibitor Emricasan as a test. […] To be specific, in a 12 plate, THP-1 cells were cultured with indicated concentrations of 3OC and Emricasan. After 1 hr, cells were collection for flow cytometric analysis of AnnexinV and PI. […] In FIG. 17b, live cell percentage of different treatment were enumerated by flow cytometry. Bar graphs of live cell percentage are depicted by mean±SEM. Then samples prepared as in FIG. 17a and FIG. 17b were used for WB analysis for the activation (cleavage) of Caspase 8 and 3. […]

mouse splenocytes = assay: AnnexinV and PI staining, B6 splenocytes; type: cell-based
Method: as §1, §2

Caspase 8 and 3 = assay: WB analysis of Caspase 8 and 3 cleavage in THP-1; type: cell-based, human; conditions: THP-1, 1 hr and 2 hr
Method: In order to verify TNFR1-FADD-caspase8-caspase3 pathway inhibitor can block immunocyte apoptosis caused by 3OC12-HSL clinically. The inventors use a clinical version of caspase inhibitor Emricasan as a test. […] To be specific, in a 12 plate, THP-1 cells were cultured with indicated concentrations of 3OC and Emricasan. After 1 hr, cells were collection for flow cytometric analysis of AnnexinV and PI. […] In FIG. 17b, live cell percentage of different treatment were enumerated by flow cytometry. Bar graphs of live cell percentage are depicted by mean±SEM. Then samples prepared as in FIG. 17a and FIG. 17b were used for WB analysis for the activation (cleavage) of Caspase 8 and 3. […] In FIG. 17c, the incubate time of the left panel is 1 hr, and the […] panel is 2 hr. (Casp 8: Caspase 8, Cld Casp 8: Cleaved-Caspase 8, Casp 3: Caspase 3, Cld Casp 3: Cleaved-Caspase 3). […] Furthermore, the inventors use B6 splenocytes (separated from C57BL/6 spleen) as the test.

TNFR1 = target: T2, TNFR1 (Mus musculus, UniProt P25118); assay: Quantum dot-based single particle tracking, TNFR1; type: cell-based
T2 construct: To track individual TNFR1 on the cell membrane; endogenous in cells
T2 sequence (P25118 30-454): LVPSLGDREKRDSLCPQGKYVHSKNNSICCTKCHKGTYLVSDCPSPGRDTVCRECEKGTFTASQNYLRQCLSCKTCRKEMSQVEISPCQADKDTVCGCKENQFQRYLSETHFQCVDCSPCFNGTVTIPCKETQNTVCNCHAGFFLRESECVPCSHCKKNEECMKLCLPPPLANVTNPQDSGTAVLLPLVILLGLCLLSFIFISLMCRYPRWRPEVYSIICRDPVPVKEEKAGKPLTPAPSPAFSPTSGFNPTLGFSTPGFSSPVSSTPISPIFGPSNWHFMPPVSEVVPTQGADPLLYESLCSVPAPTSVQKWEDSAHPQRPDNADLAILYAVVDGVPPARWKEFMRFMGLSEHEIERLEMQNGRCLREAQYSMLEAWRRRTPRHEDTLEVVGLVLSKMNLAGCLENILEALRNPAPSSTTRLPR
Method: To track individual TNFR1 on the cell membrane, anti-TNFR1 IgG (was first papain digested to yield a Fab fragment. The Fab was then conjugated with biotin through the unique —SH at its C terminal. To prepare anti TNFR1 Fab QD conjugates, a solution of 0.7 nM anti TNFR1—Fab-biotin in 1 ml of DMEM was added drop-wise to 1 ml of 2 nM QD 605-streptavidin conjugate. Cell monolayers (50% confluent) previously serum starved for 1 hr were treated with 3OC12 HSL or left untreated and incubated with […] of the final anti TNFR1-Fab-QD solution at 25° C. for 2 min. The cells were then washed twice with PBS at 25° C., placed in serum-free medium, and loaded for imaging. For single-FcRγIIA tracking, Fc fragment was obtained by papain digestion of an anti-BSA IgG (Sigma Aldrich). Fc-QD conjugate was produced as described before. Cos-1 cells were transiently transfected with Fcγ RIIA plasmid, 24 hrs later, cells were stimulated with 3OC12 HSL or left untreated and incubated with […] of the final Fc-QD solution at 25° C. for 2 min. Quantum dot-labeled cells were imaged in TIRF mode. The fluorescence was excited at 488 nm and gated by a band-pass filter (575-640, Carl Zeiss). The excitation power was about 2 mW measured after the objective. Movies of 400 frames were acquired for each sample at a full-frame rate of 17 Hz. Individual trajectories were constructed by Utrack written in Matlab. Diffusion coefficient and plot area were calculated by customized programs written with Matlab. For motion pattern determination by MSD-t analysis 5: linear, simple Brownian diffusion; open-up parabolic, directed diffusion; open-down parabolic, restricted diffusion; and near zero, stationary.

[1] = tested on: 3OC12 HSL-induced cytotoxicity; assay: Caspase inhibitors against 3OC12 HSL cytotoxicity; type: cell-based; conditions: in comparison with 3OC12 HSL treatment alone
Method: as §1

CCCCCC(=O)CC(=O)N[C@H]1CCOC1=O [3-oxo-C8]
TNFR1 trimerization (three step quenching) (TNFR1 (1-293) mutant): failed to increase

C[C@H](NC(=O)C(=O)Nc1ccccc1C(C)(C)C)C(=O)N[C@@H](CC(=O)O)C(=O)COc1c(F)c(F)cc(F)c1F [Emricasan]
blocking of 3OC12-HSL's apoptosis (THP-1 cell line): good effect in blocking 3OC12-HSL's apoptosis
blocking of 3OC12-HSL's apoptosis (mouse splenocytes): good effect in blocking 3OC12-HSL's apoptosis
blocking of Caspase 8 and 3 cleavage (Caspase 8 and 3): has effect in blocking 3OC12-HSL's apoptosis mediated by Caspase

MβCD
TNFR1 diffusion coefficient (TNFR1): higher diffusion coefficient
TNFR1 x-y surface area coverage (TNFR1): larger area coverage

TNFα
TNFR1 trimerization (three step quenching) (TNFR1 (1-293) mutant): similarly occurred

Z-VAD
effect on 3OC12 HSL cytotoxicity [1]: reduced the cytotoxicity
